Entries after “also recorded” stand apart in the source; their conditions may differ.
Columns and labels:
A*33 = test: Surface plasmon resonance, immobilized A*33; type: binding, human; settings: for SPR binding to A*33 (in words): Biacore T200, recombinant A*33
A*24 = test: Surface plasmon resonance, immobilized A*24; type: binding, human
C*07 = test: Surface plasmon resonance, immobilized C*07; type: binding, human; settings: Biacore T200, recombinant C*07
[1] = target: recombinant C-terminal His-tag HLA-A*24 (human); test: SPR
[2] = target: recombinant C-terminal His-tag HLA-A*33 (human); test: SPR
[3] = target: recombinant His-tag HLA-C*07 (human); test: SPR

**Q.** SMFWPCLLR [SAG2C] was tested. Which “SPR binding to A*33 (in words)” value (A*33) did it give?
**A.** The value was “higher binding affinity; also recorded: strong binding”.

**Q.** What about the “SPR binding to A*24 (in words)” value (A*24; Biacore T200, immobilized A*24, different concentrations of peptide) of the same molecule?
**A.** Its value is “relatively weaker binding”.

**Q.** And the “SPR binding response, A*24 compared with A*33” value (A*24; SAG2C 100 μM (Fig. 6C.iii))?
**A.** The value was “Distinct decrease in SPR binding response”.

**Q.** With GNNQIDSTLKDLVEELSK [MSP3] as the molecule, how does the “SPR binding to A*33 (in words)” value (A*33) read?
**A.** Its value is “relatively weaker binding”.

**Q.** And the “SPR binding response, A*33 compared with C*07” value (A*33; MSP3 100 μM (Fig. 8C.iii))?
**A.** Its value is “Distinct decrease in SPR binding response”.

**Q.** And the “binding to C*07 (in words)” value (C*07)?
**A.** The value was “strong binding affinity”.

B1: Toxoplasma antigenic peptide SAG2C, wild type (peptide)
peptide: SMFWPCLLR
**Q.** With B1 as the molecule, how does the SPR response at 200 uM [1] read?
**A.** Its SPR response at 200 uM is 15 RU.

**Q.** What about the SPR response at 200 uM [2] of the same molecule?
**A.** The SPR response at 200 uM was 150 RU.

B2: Plasmodium antigenic peptide MSP3 (peptide)
peptide: GNNQIDSTLKDLVEELSK
**Q.** Which SPR response at 200 uM [2] does the source give for B2 here?
**A.** The SPR response at 200 uM was 12 RU.

**Q.** And the SPR response at 200 uM [3]?
**A.** The SPR response at 200 uM was 60 RU.

Reference: article PMC13201543 (Communications Biology, 2026)
